PMC3265452 (PLoS Neglected Tropical Diseases, 2012)
Where a name gives a salt, the structure may show the parent alone.

target: AaDOP2 (Aedes aegypti, UniProt H6D5H2); assay: AaDOP2 antagonist screen of the LOPAC1280 library (HEK-CRELuc-Aadop2 cells, luminescence); format: cell-based; conditions: not given
Sequence (H6D5H2 1-476): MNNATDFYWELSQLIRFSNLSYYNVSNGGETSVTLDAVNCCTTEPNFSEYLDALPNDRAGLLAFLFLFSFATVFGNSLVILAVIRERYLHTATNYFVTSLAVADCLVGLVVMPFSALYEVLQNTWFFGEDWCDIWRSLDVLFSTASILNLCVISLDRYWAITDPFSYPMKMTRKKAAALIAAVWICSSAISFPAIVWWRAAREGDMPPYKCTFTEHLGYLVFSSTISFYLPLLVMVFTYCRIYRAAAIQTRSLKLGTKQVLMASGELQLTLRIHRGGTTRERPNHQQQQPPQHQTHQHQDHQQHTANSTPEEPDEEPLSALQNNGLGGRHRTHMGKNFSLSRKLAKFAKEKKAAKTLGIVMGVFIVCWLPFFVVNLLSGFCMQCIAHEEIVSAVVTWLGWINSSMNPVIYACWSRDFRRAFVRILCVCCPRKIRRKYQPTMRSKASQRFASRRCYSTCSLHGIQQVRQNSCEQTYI

| Compound | Compound effect (percent receptor signaling in presence of test compound, relative lux units relative to the SCH23390 control) | % of the SCH23390 effect (percent inhibition of receptor response relative to the SCH23390 control) [%] |
| --- | --- | --- |
| CC(C)[N+]1(C)[C@@H]2CC[C@H]1C[C@@H](OC(=O)C(CO)c1ccccc1)C2 (some centres unmarked) [Compound 635, Ipratropium bromide] | 118 |  |
| Cn1c(=O)c2[nH]c(-c3ccccc3)nc2n(C)c1=O [Compound 932, 1,3-Dimethyl-8-phenylxanthine] | 107 |  |
| Cl.O=c1cc(N2CCOCC2)oc2c(-c3ccccc3)cccc12 [Compound 719, LY-294,002 hydrochloride] | 53 |  |
| R-(-)-Desmethyldeprenyl hydrochloride [Compound 407] | 90 |  |
| CC[C@@]1(O)C(=O)OCc2c1cc1n(c2=O)Cc2cc3ccccc3nc2-1 [Compound 323, (S)-(+)-Camptothecin] | 7 | 93 |
| N=C(N)N/N=C/c1c(Cl)cccc1Cl [Compound 565, Guanabenz acetate] | 156 |  |
| CCOC(=O)C1=C(C)NC(C)=C(C(=O)OC)C1c1cccc([N+](=O)[O-])c1 (centres unmarked) [Compound 881, Nitrendipine] | 103 |  |
| CNc1ncnc2c1ncn2[C@@H]1O[C@H](CO)[C@@H](O)[C@H]1O [Compound 780, N6-Methyladenosine] | 80 |  |
| C[C@H]1CCC/C=C/[C@@H]2C[C@H](O)C[C@H]2[C@H](O)/C=C/C(=O)O1 [Compound 185, Brefeldin A from Penicillium brefeldianum] | 124 |  |
| O=C(O)c1cc([N+](=O)[O-])ccc1NCCCc1ccccc1 [Compound 854, 5-Nitro-2-(3-phenylpropylamino)benzoic acid] | 99 |  |
| Br.NC1CCc2cc(O)c(O)cc2C1 (centres unmarked) [Compound 434, 6,7-ADTN hydrobromide] | 118 |  |
| Phenylbenzene-omega-phosphono-alpha-amino acid [Compound 1021] | 95 |  |
| CCCC(CCC)C(=O)O [Compound 945, Valproic acid sodium] | 85 |  |
| COC(=O)C1=C(C)NC(C)=C(C(=O)OCCN(C)Cc2ccccc2)C1c1cccc([N+](=O)[O-])c1 (centres unmarked) [Compound 865, Nicardipine hydrochloride] | 76 |  |
| CCCCCCCCCCCCCCCCCC(=O)OC(CC(=O)O)C[N+](C)(C)C.[Cl-] (racemic) [Compound 1088, DL-Stearoylcarnitine chloride] | 101 |  |
| CN1CCc2cccc(Cl)c2CC1 [Compound 1082, SKF 86466] | 37 |  |

| Compound | Compound effect (percent receptor signaling in presence of test compound, relative lux units relative to the SCH23390 control) | % of the SCH23390 effect (percent inhibition of receptor response relative to the SCH23390 control) [%] |
| --- | --- | --- |
| Oc1c2ccccc2c2c3c(cccc13)N=N2 [Compound 424, SP600125] | 101 |  |
| N#C/C(=C\c1ccc(O)c(O)c1)C(=O)Nc1ccccc1 [Compound 1171, Tyrphostin AG 494] | 83 |  |
| NCCCNCCSP(=O)(O)O [Compound 67, Amifostine] | 111 |  |
| O=[N+]([O-])c1cc(O)c(O)c([N+](=O)[O-])c1 [Compound 456, 3,5-Dinitrocatechol] | 95 |  |
| COc1cc(CNC(=O)CCCCCCC(C)C)ccc1O [Compound 735, Dihydrocapsaicin] | 102 |  |
| CC1=C(/C=C/C(C)=C/C=C/C(C)=C\C(=O)O)C(C)(C)CCC1 [Compound 1045, 13-cis-retinoic acid] | 72 |  |
| C[C@@]1(C2CCCC2)Cc2cc(OCC(=O)O)c(Cl)c(Cl)c2C1=O [Compound 668, R(+)-IAA-94] | 100 |  |
| CC1C2Cc3ccc(O)cc3C1(C)CCN2CC1CC1 (single isomer, unassigned; (+)) [Compound 341, (+)-Cyclazocine] | 86 |  |
| C[C@]12CCC(=O)C(O)=C1CC[C@@H]1[C@@H]2CC[C@]2(C)C(=O)CC[C@@H]12 [Compound 63, 4-Androsten-4-ol-3,17-dione] | 107 |  |
| CN1C(=O)CC[C@H]1c1cccnc1 [Compound 277, (-)-Cotinine] | 96 |  |
| Cn1c(=O)[nH]c2ncn(C)c2c1=O [Compound 391, 1,7-Dimethylxanthine] | 94 |  |
| CCOC(=O)N1CCC(=C2c3ccc(Cl)cc3CCc3cccnc32)CC1 [Compound 716, Loratadine] | 88 |  |
| Histamine, R(-)-alpha-methyl-, dihydrochloride [Compound 622] | 127 |  |
| COC(=O)Nc1nc2ccc(C(=O)c3cccs3)cc2[nH]1 [Compound 738, Nocodazole] | 89 |  |
| CN(C)[C@@H]1C(O)=C(C(N)=O)C(=O)[C@@]2(O)C(O)=C3C(=O)c4c(O)ccc(Cl)c4[C@@H](O)[C@H]3C[C@@H]12 [Compound 403, Demeclocycline hydrochloride] | 84 |  |
| CC(C)[C@@]1(NC(=O)[C@@H]2C[C@@H]3c4cccc5[nH]cc(c45)C[C@H]3N(C)C2)O[C@@]2(O)[C@@H]3CCCN3C(=O)[C@H](Cc3ccccc3)N2C1=O.CS(=O)(=O)O [Compound 465, Dihydroergocristine methanesulfonate] | 32 |  |

same assay, conditions: 10 µM compound, 300 nM dopamine, 2 hr; hit = compound effect <20

| Compound | Compound effect (percent receptor signaling in presence of test compound, relative lux units relative to the SCH23390 control) [%] |
| --- | --- |
| N[C@@]1(C(=O)O)CC[C@@H](C(=O)O)C1 (racemic) [Compound 130, trans-(±)-ACPD] | 116 |
| NCCCS(=O)(=O)O.[Na] [Compound 47, 3-Amino-1-propanesulfonic acid sodium] | 94 |
| NC(=O)NO [Compound 604, Hydroxyurea] | 122 |
| NC(CO)(CO)CO.O=C(c1ccccc1)c1ccc2n1CCC2C(=O)O (centres unmarked) [Compound 684, Ketorolac tris salt] | 98 |
| CC(C)C1C2CCC(C2)C1N.Cl (centres unmarked) [Compound 147, AGN 192403 hydrochloride] | 109 |
